d = 2'-deoxy (DNA); r = 2'-OH (RNA)
Assays:
Assay type in all cases: cell-based
CHLA-136 cells = experiment: Carboplatin IC50 in siRNA-transfected cells, Cell Titer Glo 2.0 viability (Example 6); settings: for Data Summary: effect of knockdown on sensitivity to carboplatin: CHLA-136; for IC50: CHLA-136 cells transfected with the labelled siRNA, carboplatin added 24 hours post transfection, 72 hour incubation
Protocol: (§1) GPC2 mRNA expression was reduced using the indicated siRNAs and changes in cell viability were assessed in multiple neuroblastoma cell lines. Cells were transfected with either a control siRNA or with GPC2 siRNA sequences 3, 5 or 7 from Table 7 using the RNAiMAX Lipofectamine kit (Invitrogen, Carlsbad, Calif.) as previously described in 96 wells for viability assays. Carboplatin was added at increasing concentrations (0 to 150 uM) to transfected cells at 24 hours post transfection. Following a 72 hour incubation period, viability measurements were made using Cell Titer Glo 2.0.

KELLY cells = experiment: as above; settings: for IC50: KELLY cells transfected with the labelled siRNA, carboplatin added 24 hours post transfection, 72 hour incubation
Protocol: as §1

SKNAS cells = experiment: as above; settings: for Data Summary: effect of knockdown on sensitivity to carboplatin: SKNAS; for IC50: SKNAS cells transfected with the labelled siRNA, carboplatin added 24 hours post transfection, 72 hour incubation
Protocol: as §1

CHLA-172 cells = experiment: as above; settings: for Data Summary: effect of knockdown on sensitivity to carboplatin: CHLA-172; for IC50: CHLA-172 cells transfected with the labelled siRNA, carboplatin added 24 hours post transfection, 72 hour incubation
Protocol: as §1

[1] = tested on: CHP212, SKNAS, SKNBE2 or CHLA90 neuroblastoma cells; experiment: Tumor spheroid formation after siRNA transfection, low attachment plate (Example 11); settings: 96 hours following transfection, in cells with the highest degree of GPC2 mRNA knockdown (FIG. 6)
Protocol: The effect of GPC2 knockdown on tumor spheroid formation was assessed. CHP212, SKNAS, SKNBE2 or CHLA90 neuroblastoma cells were transfected with either a scrambled control siRNA or with a GPC2 siRNA of sequence 5 from Table 7 using the RNAiMAX Lipofectamine kit (Invitrogen, Carlsbad, Calif.), as previously described. Following transfection, cells were plated in a low attachment 96 well plate for spheroid formation while under siRNA treatment.

| Substance | Data Summary: effect of knockdown on sensitivity to carboplatin (CHLA-136 cells) | IC50 (CHLA-136 cells) | IC50 (KELLY cells) | Data Summary: effect of knockdown on sensitivity to carboplatin (SKNAS cells) | IC50 (SKNAS cells) | Data Summary: effect of knockdown on sensitivity to carboplatin (CHLA-172 cells) | IC50 (CHLA-172 cells) | Tumor spheroid formation [1] | Data Summary: effect of knockdown on sensitivity to carboplatin (KELLY cells; KELLY) |
| --- | --- | --- | --- | --- | --- | --- | --- | --- | --- |
| GPC2 siRNA 3: siRNA duplex: sense CCUGCUUGGACCUCGAUAA[dT][dT] (SEQ ID NO: 207), anti-sense UUAUCGAGGUCCAAGCAGG[dT][dT] (SEQ ID NO: 208) (sense CCUGCUUGGACCUCGAUAANN; antisense UUAUCGAGGUCCAAGCAGGNN; 3' dTdT overhangs, chemistry not fully specified; listed as Homo sapiens) | not increase sensitivity | 47 µM | 12 µM | increases sensitivity to | 40 µM | increases sensitivity to | 100 µM | – | – |
| GPC2 siRNA 5: siRNA duplex: sense CUCAGUAGCCCAGCACUCU[dT][dT] (SEQ ID NO: 211), anti-sense AGAGUGCUGGGCUACUGAG[dT][dT] (SEQ ID NO: 212) (sense CUCAGUAGCCCAGCACUCUTT; antisense AGAGUGCUGGGCUACUGAGTT; sugars from the 5' end r19 d2, backbone not given here; listed as Homo sapiens) | not increase sensitivity | 36 µM | 9 µM | increases sensitivity to | 15.3 µM | increases sensitivity to | 100 µM | greatest inhibition in their ability to form spheroids | KD with sequence 5 increases |

From patent US20210171948A1, “COMPOSITIONS AND METHODS FOR TARGETING GLYPICAN-2 IN THE TREATMENT OF CANCER” (Shepherd Therapeutics, Inc., priority 2019, published 2021)
